This passage reports EC50 and CC50 results from US5696151A, “Compounds useful for the inhibition of the replication of HIV-1 and HIV-1 mutants” (priority 1995, dated 1997).

Common to all, as to type: cell-based
The subject of one data set is HIV-1/100-Ile. The experiment in a line: Inhibition of HIV-1 induced syncytium formation in CEM cells, RT mutant 100-Ile. The conditions noted are these: Human immunodeficiency virus 1, CCRF-CEM, 96 h, Table 2B, day 4, averages of 2 to 3 independent experiments, read-out: Antiviral Activity of Comparative Compounds EC50, 100-Ile. From the text: (§1) CEM cells were obtained from the American Tissue Cell Culture Collection (Rockville, Md.). HIV-1(IIIB) was originally obtained from the culture supernatant of persistently HIV-1-infected H9 cells and was provided by R. C. Gallo and M. Popovic (National Cancer Institute, National Institutes of Health, Bethesda, Md.). […] 67: 5353-5359 (1993); HIV-1/Lys-138 ("Lys-138") was selected for resistance against TSAO-m^3T as described in Balzarini et al, Virology 192: 246-253 (1993) and Balzarini et al, Proc. Nat. Acad. Sci. USA 90: 6952-6956 (1993); HIV-1/181-Cys ("181-Cys") was selected for resistance against pyridinone L-697,661 as described in Balzarini et al, Virology 192: 246-253 (1993); and HIV-1/188-His ("188-His") was selected for resistance against HEPT as described in Balzarini et al, Mol. Pharmocol. 44: 694-701 (1993). 188-His was then further converted to HIV-1/188-Leu "188-Leu") upon further passage in cell culture in the absence of the HEPT.
(§2) CEM cells were suspended at ≈300,000 cells per ml of culture medium and infected with approximately 100 CCID50 (CCID50 being the 50% cell culture infective dose) of HIV-1(IIIB) or one of the HIV-1 RT mutant strains described above. Then 100 μl of the infected cell suspensions was added to 200 μl microtiter plate wells containing 100 μl of appropriate serial (5-fold) dilutions of the test compounds. The inhibitory effect of the test compounds on HIV-1 induced syncytium formation in CEM cells was examined microscopically on day 4 post infection.

A further data set deals with HIV-1/181-Cys. The data set can be described thus: Inhibition of HIV-1 induced syncytium formation in CEM cells, RT mutant 181-Cys. The conditions noted are these: Human immunodeficiency virus 1, CCRF-CEM, 96 h, Table 2B, day 4, averages of 2 to 3 independent experiments, read-out: Antiviral Activity of Comparative Compounds EC50, 181-Cys.
Source text: as §1, §2

A further data set can be described thus: in vitro. The conditions noted are these: human, cem cells, CC50 (50% cytostatic concentration), Table 2B; CEM cell proliferation; averages of 2 to 3 independent experiments.
Source text: as §1
^b 50% cytostatic concentration (i.e., compound concentration require
to inhibit CEM cell proliferation by 50%)

The test system of the next data set is HIV-1/Lys-138. The experiment in a line: Inhibition of HIV-1 induced syncytium formation in CEM cells, RT mutant 138-Lys. The conditions noted are these: Human immunodeficiency virus 1, CCRF-CEM, 96 h, Table 2B, day 4, averages of 2 to 3 independent experiments, read-out: Antiviral Activity of Comparative Compounds EC50, 138-Lys.
Source text: as §1, §2

In another data set the test system is HIV-1(IIIB). The data set can be described thus: Inhibition of HIV-1 induced syncytium formation in CEM cells, wild type. The conditions noted are these: Human immunodeficiency virus 1, IIIB, CCRF-CEM, 96 h, Table 2B, WT = HIV-1(IIIB), day 4, averages of 2 to 3 independent experiments, read-out: Antiviral Activity of Comparative Compounds EC50, WT.
Source text: as §1, §2

The next data set concerns HIV-1/106-Ala. The experiment in a line: Inhibition of HIV-1 induced syncytium formation in CEM cells, RT mutant 106-Ala. The conditions noted are these: Human immunodeficiency virus 1, CCRF-CEM, 96 h, Table 2B, day 4, averages of 2 to 3 independent experiments, read-out: Antiviral Activity of Comparative Compounds EC50, 106-Ala.
Source text: as §1, §2

In brackets after ≈: the same amount, converted by molar mass.

As usually defined, the EC50 is the concentration needed to bring the measured effect to its halfway point. For orientation: CC50 means the concentration at which the toxic effect on the cells reaches its halfway point. Low values mean greater toxicity to the cells, high ones lower toxicity to the cells. On to `O=C(OC1CCCCC1)c1cc(NC(=S)c2ccccc2Cl)ccc1Cl` [Compound 80], for which the EC50 in the data set on HIV-1/100-Ile was found to be 4 µg/mL (≈ 9.8 µM); in the data set on HIV-1/181-Cys, 3 µg/mL (≈ 7.35 µM); in the data set with HIV-1/Lys-138 it was 4 µg/mL (≈ 9.8 µM); in the data set with HIV-1(IIIB), 0.5 µg/mL (≈ 1.22 µM); in the data set with HIV-1/106-Ala, 5 µg/mL (≈ 12.2 µM). In “in vitro”, this compound gave a CC50 of 8.3 µg/mL (≈ 20.3 µM).

For the compound `COc1ccccc1C(=O)Nc1ccc(Cl)c(C(=O)OC2CCCC2)c1` [Compound 68], the EC50 is 5 µg/mL (≈ 13.4 µM) with HIV-1/100-Ile; 8.5 µg/mL (≈ 22.7 µM) with HIV-1/181-Cys; 5.5 µg/mL (≈ 14.7 µM) in the data set with HIV-1/Lys-138; 0.45 µg/mL (≈ 1.2 µM) in the data set on HIV-1(IIIB); 8.5 µg/mL (≈ 22.7 µM) with HIV-1/106-Ala. In addition, the 50% cytotoxic concentration (CC50) in “in vitro” is greater than 100 µg/mL.

On to `COc1ccccc1C(=S)Nc1ccc(Cl)c(C(=O)OC2CCCCC2)c1` [Compound 81], for which the EC50 came out at 0.7 µg/mL (≈ 1.73 µM) with HIV-1/100-Ile; 4.5 µg/mL (≈ 11.1 µM) in the data set with HIV-1/181-Cys; 0.6 µg/mL (≈ 1.49 µM) with HIV-1/Lys-138; 0.04 µg/mL (≈ 0.099 µM) in the data set on HIV-1(IIIB); 0.65 µg/mL (≈ 1.61 µM) with HIV-1/106-Ala. In “in vitro”, this compound displayed a CC50 of 12 µg/mL (≈ 29.7 µM).

With `CCC(CC)OC(=O)c1cc(NC(=S)c2ccoc2C)ccc1Cl` [Compound 107], the EC50 was found to be 0.6 µg/mL (≈ 1.64 µM) in the data set with HIV-1/100-Ile; 0.3 µg/mL (≈ 0.82 µM) in the data set with HIV-1/181-Cys; 0.15 µg/mL (≈ 0.41 µM) in the data set with HIV-1/Lys-138; 0.04 µg/mL (≈ 0.109 µM) in the data set on HIV-1(IIIB); 0.3 µg/mL (≈ 0.82 µM) with HIV-1/106-Ala. This compound had a CC50 in “in vitro” of 16 µg/mL (≈ 43.7 µM).

Turning to `CC(C)(C)ON=Cc1cc(NC(=S)c2ccccc2)ccc1Cl` [Compound 93], the EC50 in the data set on HIV-1/100-Ile came out at 2 µg/mL (≈ 5.77 µM); with HIV-1/181-Cys, 0.7 µg/mL (≈ 2.02 µM); in the data set on HIV-1/Lys-138 it was 0.08 µg/mL (≈ 0.231 µM); with HIV-1(IIIB), 0.03 µg/mL (≈ 0.0865 µM); in the data set on HIV-1/106-Ala, 0.1 µg/mL (≈ 0.288 µM). For the same compound, in “in vitro”, the CC50 worked out at 9.7 µg/mL (≈ 28 µM).

Take `C=CC(C)(C)OC(=O)c1cc(NC(=S)c2ccoc2C)ccc1Cl` [Compound 110]: the EC50 with HIV-1/100-Ile was determined as 4 µg/mL (≈ 11 µM); in the data set on HIV-1/181-Cys, 0.5 µg/mL (≈ 1.37 µM); in the data set on HIV-1/Lys-138, 0.1 µg/mL (≈ 0.275 µM); in the data set with HIV-1(IIIB), 0.04 µg/mL (≈ 0.11 µM); in the data set with HIV-1/106-Ala it was 0.2 µg/mL (≈ 0.55 µM). Moreover, the CC50 in the data set “in vitro” worked out at 25 µg/mL (≈ 68.7 µM).

For `C#CCOc1cc(NC(=S)c2ccoc2C)ccc1Cl` [Compound 117], the EC50 in the data set on HIV-1/100-Ile turned out to be 5 µg/mL (≈ 16.4 µM); in the data set on HIV-1/181-Cys, 4 µg/mL (≈ 13.1 µM); with HIV-1/Lys-138, 0.35 µg/mL (≈ 1.14 µM); in the data set on HIV-1(IIIB) it was 0.06 µg/mL (≈ 0.196 µM); in the data set on HIV-1/106-Ala it was 0.75 µg/mL (≈ 2.45 µM). Moreover, the half-maximal cytotoxic concentration (CC50) in “in vitro” turned out to be 18 µg/mL (≈ 58.9 µM).

Turning to `C=CCOC(=O)c1cc(NC(=S)c2ccoc2C)ccc1Cl` [Compound 104], the EC50 in the data set on HIV-1/100-Ile came to 0.65 µg/mL (≈ 1.94 µM); in the data set on HIV-1/181-Cys, 0.37 µg/mL (≈ 1.1 µM); in the data set on HIV-1/Lys-138 it was 0.2 µg/mL (≈ 0.596 µM); in the data set with HIV-1(IIIB), 0.01 µg/mL (≈ 0.0298 µM); in the data set with HIV-1/106-Ala, 0.4 µg/mL (≈ 1.19 µM). In “in vitro”, this compound registered a CC50 of 11 µg/mL (≈ 32.8 µM).

On to `C=C(C)COC(=O)c1cc(NC(=S)c2ccoc2C)ccc1Cl` [Compound 51], for which the EC50 worked out at 0.8 µg/mL (≈ 2.29 µM) in the data set on HIV-1/100-Ile; 0.1 µg/mL (≈ 0.286 µM) with HIV-1/181-Cys; 0.03 µg/mL (≈ 0.0858 µM) in the data set with HIV-1/Lys-138; 0.006 µg/mL (≈ 0.0172 µM) in the data set with HIV-1(IIIB); 0.03 µg/mL (≈ 0.0858 µM) in the data set on HIV-1/106-Ala. The midpoint of cytotoxicity in the data set “in vitro”, the CC50, lay at 6.7 µg/mL (≈ 19.2 µM).

Regarding `C=CCOc1cc(NC(=S)c2sccc2C)ccc1OC` [Compound 78], the EC50 in the data set with HIV-1/100-Ile is 5 µg/mL (≈ 15.7 µM); in the data set with HIV-1/181-Cys it was 3.3 µg/mL (≈ 10.3 µM); in the data set with HIV-1/Lys-138, 1.13 µg/mL (≈ 3.54 µM); in the data set on HIV-1(IIIB), 0.045 µg/mL (≈ 0.141 µM); with HIV-1/106-Ala, 2 µg/mL (≈ 6.26 µM). In “in vitro”, this compound gave a CC50 of 7.1 µg/mL (≈ 22.2 µM).

In the case of `Cc1occc1C(=S)Nc1ccc(Cl)c(C=NOC2CCCC2)c1` [Compound 113], the EC50 worked out at 0.27 µg/mL (≈ 0.744 µM) in the data set with HIV-1/100-Ile; 0.13 µg/mL (≈ 0.358 µM) in the data set on HIV-1/181-Cys; 0.15 µg/mL (≈ 0.413 µM) in the data set on HIV-1/Lys-138; 0.023 µg/mL (≈ 0.0634 µM) in the data set on HIV-1(IIIB); 0.085 µg/mL (≈ 0.234 µM) in the data set with HIV-1/106-Ala. This compound registered a 50% cytotoxic concentration (CC50) in “in vitro” of 5.4 µg/mL (≈ 14.9 µM).

As to `CCOC(=O)c1cc(NC(=S)c2ccoc2C)ccc1C` [Compound 75], the EC50 in the data set with HIV-1/100-Ile was determined as 0.9 µg/mL (≈ 2.97 µM); with HIV-1/181-Cys, 0.6 µg/mL (≈ 1.98 µM); in the data set on HIV-1/Lys-138, 0.35 µg/mL (≈ 1.15 µM); in the data set on HIV-1(IIIB), 0.009 µg/mL (≈ 0.0297 µM); in the data set with HIV-1/106-Ala, 0.7 µg/mL (≈ 2.31 µM). In addition, the CC50 in “in vitro” came to 16 µg/mL (≈ 52.7 µM).
